Source: ChEMBL document CHEMBL3763148, “Synthesis, structure elucidation, DNA-PK and PI3K and anti-cancer activity of 8- and 6-aryl-substituted-1-3-benzoxazines” (Eur J Med Chem, 2016)

Tests used:
[1] = Cytotoxicity against human HOP62 cells assessed as cell growth inhibition at 10 uM after 48 hrs by SRB assay relative to control; type: functional; settings: HOP-62, 48 h, read-out: GI
HT-29 = experiment: Cytotoxicity against human HT-29 cells assessed as cell growth inhibition at 10 uM after 48 hrs by SRB assay relative to control; type: functional; settings: HT-29, 48 h, read-out: GI
A498 = experiment: Cytotoxicity against human A498 cells assessed as cell growth inhibition at 10 uM after 48 hrs by SRB assay relative to control; type: functional; settings: A498, 48 h, read-out: GI
U-251 = experiment: Cytotoxicity against human U251 cells assessed as cell growth inhibition at 10 uM after 48 hrs by SRB assay relative to control; type: functional; settings: U-251, 48 h, read-out: GI
[2] = Cytotoxicity against human RPMI8226 cells assessed as cell growth inhibition at 10 uM after 48 hrs by SRB assay relative to control; type: functional; settings: RPMI-8226, 48 h, read-out: GI
[3] = Cytotoxicity against human UACC257 cells assessed as cell growth inhibition at 10 uM after 48 hrs by SRB assay relative to control; type: functional; settings: UACC-257, 48 h, read-out: GI
MCF7 = experiment: Cytotoxicity against human MCF7 cells assessed as cell growth inhibition at 10 uM after 48 hrs by SRB assay relative to control; type: functional; settings: MCF7, 48 h, read-out: GI
[4] = Cytotoxicity against human NCI-ADR-RES cells assessed as cell growth inhibition at 10 uM after 48 hrs by SRB assay relative to control; type: functional; settings: read-out: GI
[5] = Cytotoxicity against human LOXIMVI cells assessed as cell growth inhibition at 10 uM after 48 hrs by SRB assay relative to control; type: functional; settings: LOX IMVI, read-out: GI
[6] = Cytotoxicity against human RXF393 cells assessed as cell growth inhibition at 10 uM after 48 hrs by SRB assay relative to control; type: functional; settings: RXF 393, 48 h, read-out: GI
[7] = Cytotoxicity against human MOLT4 cells assessed as cell growth inhibition at 10 uM after 48 hrs by SRB assay relative to control; type: functional; settings: MOLT-4, 48 h, read-out: GI
[8] = molecular target: DNA-dependent protein kinase catalytic subunit (Homo sapiens, UniProt P78527); experiment: Inhibition of human DNA-PK using EPPLSQEAFADLWKK as substrate by HTRF assay
Chain of DNA-dependent protein kinase catalytic subunit (P78527 whole entry): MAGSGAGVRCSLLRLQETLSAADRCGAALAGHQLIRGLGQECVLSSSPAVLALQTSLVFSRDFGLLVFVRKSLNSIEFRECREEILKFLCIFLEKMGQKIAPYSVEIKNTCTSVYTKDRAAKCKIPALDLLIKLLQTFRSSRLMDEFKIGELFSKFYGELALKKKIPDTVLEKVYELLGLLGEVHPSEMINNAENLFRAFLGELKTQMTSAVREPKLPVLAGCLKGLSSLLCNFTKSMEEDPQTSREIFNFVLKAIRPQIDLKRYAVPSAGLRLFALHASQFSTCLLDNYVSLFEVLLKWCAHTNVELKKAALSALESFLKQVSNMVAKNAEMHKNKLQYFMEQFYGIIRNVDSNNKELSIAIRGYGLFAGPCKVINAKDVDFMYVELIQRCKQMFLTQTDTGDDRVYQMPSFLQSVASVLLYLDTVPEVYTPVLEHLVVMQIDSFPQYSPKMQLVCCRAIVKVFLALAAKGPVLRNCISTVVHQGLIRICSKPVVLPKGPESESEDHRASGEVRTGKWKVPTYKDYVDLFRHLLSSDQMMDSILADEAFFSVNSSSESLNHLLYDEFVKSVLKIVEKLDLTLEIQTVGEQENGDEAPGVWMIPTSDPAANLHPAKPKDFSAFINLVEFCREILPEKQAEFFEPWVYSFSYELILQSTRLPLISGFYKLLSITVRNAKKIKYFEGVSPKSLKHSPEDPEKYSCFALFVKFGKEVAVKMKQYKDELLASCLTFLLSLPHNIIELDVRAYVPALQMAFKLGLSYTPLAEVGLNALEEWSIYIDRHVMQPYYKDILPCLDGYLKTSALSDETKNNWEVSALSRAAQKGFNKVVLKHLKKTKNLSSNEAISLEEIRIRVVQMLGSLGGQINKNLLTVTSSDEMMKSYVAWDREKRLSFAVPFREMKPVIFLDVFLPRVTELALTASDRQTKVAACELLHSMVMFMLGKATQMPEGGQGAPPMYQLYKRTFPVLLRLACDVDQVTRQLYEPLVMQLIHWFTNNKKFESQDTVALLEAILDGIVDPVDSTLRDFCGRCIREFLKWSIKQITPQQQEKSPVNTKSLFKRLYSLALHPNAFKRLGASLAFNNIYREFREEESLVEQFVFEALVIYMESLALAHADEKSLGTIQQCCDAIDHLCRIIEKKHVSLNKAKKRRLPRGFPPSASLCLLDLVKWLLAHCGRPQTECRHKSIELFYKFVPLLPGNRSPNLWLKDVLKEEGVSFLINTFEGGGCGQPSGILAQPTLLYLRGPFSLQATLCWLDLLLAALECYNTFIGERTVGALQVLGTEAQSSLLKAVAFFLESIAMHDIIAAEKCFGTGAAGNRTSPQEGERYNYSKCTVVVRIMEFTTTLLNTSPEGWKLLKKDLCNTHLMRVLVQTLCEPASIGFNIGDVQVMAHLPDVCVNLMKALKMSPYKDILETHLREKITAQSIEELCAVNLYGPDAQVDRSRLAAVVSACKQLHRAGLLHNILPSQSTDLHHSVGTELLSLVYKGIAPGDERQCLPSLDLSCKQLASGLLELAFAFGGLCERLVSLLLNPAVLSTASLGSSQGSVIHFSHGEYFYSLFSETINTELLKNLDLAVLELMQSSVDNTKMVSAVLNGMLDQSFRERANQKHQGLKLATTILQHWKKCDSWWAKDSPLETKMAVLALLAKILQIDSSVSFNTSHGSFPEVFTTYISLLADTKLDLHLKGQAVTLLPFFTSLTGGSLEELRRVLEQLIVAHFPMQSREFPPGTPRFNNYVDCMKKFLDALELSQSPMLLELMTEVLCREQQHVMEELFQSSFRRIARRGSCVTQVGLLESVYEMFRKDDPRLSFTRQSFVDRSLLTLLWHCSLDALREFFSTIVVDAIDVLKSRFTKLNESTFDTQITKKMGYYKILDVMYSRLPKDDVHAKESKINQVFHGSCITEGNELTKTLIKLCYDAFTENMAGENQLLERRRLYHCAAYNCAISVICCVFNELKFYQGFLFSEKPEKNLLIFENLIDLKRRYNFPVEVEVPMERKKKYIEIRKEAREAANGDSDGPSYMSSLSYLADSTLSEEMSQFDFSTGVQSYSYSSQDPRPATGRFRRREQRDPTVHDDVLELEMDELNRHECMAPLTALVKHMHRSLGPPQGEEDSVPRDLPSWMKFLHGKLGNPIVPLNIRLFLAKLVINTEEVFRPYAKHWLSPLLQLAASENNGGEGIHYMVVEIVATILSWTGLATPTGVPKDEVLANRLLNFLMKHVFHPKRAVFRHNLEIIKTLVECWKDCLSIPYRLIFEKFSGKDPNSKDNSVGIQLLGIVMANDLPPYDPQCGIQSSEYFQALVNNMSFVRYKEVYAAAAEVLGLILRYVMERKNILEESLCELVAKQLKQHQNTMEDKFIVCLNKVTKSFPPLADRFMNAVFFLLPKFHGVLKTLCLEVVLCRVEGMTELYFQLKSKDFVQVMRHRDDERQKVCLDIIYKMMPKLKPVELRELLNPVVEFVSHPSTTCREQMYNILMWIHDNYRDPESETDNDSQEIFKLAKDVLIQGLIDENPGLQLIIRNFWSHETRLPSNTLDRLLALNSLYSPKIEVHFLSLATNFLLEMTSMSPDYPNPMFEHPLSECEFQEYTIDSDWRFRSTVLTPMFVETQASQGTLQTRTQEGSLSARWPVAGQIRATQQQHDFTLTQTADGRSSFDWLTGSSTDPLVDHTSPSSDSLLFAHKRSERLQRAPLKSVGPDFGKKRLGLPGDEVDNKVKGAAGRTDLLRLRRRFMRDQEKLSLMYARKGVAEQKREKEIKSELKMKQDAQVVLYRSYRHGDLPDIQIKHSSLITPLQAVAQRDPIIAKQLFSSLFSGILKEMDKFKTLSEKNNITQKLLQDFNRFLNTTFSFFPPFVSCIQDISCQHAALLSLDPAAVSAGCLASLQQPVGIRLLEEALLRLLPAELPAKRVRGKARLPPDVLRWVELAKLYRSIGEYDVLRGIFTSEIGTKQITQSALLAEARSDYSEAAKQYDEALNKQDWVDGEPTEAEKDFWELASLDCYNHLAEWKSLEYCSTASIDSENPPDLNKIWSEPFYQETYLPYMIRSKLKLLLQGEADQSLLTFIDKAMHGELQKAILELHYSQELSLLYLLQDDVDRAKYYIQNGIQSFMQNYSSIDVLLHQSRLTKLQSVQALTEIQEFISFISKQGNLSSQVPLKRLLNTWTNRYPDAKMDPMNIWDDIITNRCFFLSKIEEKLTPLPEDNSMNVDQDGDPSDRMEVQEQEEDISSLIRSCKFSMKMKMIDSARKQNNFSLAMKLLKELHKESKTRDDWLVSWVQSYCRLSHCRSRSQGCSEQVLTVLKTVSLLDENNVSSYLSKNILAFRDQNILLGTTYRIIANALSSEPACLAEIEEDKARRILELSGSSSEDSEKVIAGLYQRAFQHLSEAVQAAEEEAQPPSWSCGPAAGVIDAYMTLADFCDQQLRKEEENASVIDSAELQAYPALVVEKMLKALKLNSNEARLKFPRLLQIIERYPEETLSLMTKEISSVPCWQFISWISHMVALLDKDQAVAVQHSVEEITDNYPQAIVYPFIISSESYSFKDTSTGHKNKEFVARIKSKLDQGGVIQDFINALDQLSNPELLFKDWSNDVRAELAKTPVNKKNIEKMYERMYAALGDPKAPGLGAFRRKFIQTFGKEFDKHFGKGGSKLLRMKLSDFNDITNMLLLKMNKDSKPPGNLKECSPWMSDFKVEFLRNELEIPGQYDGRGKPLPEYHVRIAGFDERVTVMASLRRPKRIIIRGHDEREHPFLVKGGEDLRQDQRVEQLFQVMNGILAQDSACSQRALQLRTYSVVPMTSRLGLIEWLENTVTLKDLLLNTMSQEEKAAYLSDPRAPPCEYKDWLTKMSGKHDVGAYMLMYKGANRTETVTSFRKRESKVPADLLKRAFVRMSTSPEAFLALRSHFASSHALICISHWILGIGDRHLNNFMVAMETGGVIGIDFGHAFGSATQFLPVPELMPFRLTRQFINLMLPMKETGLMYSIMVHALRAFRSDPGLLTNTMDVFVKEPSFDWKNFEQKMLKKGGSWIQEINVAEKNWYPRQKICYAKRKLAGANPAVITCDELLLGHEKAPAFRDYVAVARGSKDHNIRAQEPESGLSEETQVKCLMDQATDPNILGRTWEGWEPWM

[9] = Cytotoxicity against human SKOV3 cells assessed as cell growth inhibition at 10 uM after 48 hrs by SRB assay relative to control; type: functional; settings: SK-OV-3, 48 h, read-out: GI
[10] = Cytotoxicity against human SNB19 cells assessed as cell growth inhibition at 10 uM after 48 hrs by SRB assay relative to control; type: functional; settings: SNB-19, 48 h, read-out: GI
NCI-H522 = experiment: Cytotoxicity against human NCI-H522 cells assessed as cell growth inhibition at 10 uM after 48 hrs by SRB assay relative to control; type: functional; settings: NCI-H522, 48 h, read-out: GI
[11] = Cytotoxicity against human SNB75 cells assessed as cell growth inhibition at 10 uM after 48 hrs by SRB assay relative to control; type: functional; settings: SNB-75, 48 h, read-out: GI
ACHN = experiment: Cytotoxicity against human ACHN cells assessed as cell growth inhibition at 10 uM after 48 hrs by SRB assay relative to control; type: functional; settings: read-out: GI
NCI-H322M = experiment: Cytotoxicity against human NCI-H322M cells assessed as cell growth inhibition at 10 uM after 48 hrs by SRB assay relative to control; type: functional; settings: read-out: GI
[12] = Cytotoxicity against human HCC2998 cells assessed as cell growth inhibition at 10 uM after 48 hrs by SRB assay relative to control; type: functional; settings: HCC 2998, 48 h, read-out: GI
[13] = Cytotoxicity against human PC3 cells assessed as cell growth inhibition at 10 uM after 48 hrs by SRB assay relative to control; type: functional; settings: PC-3, 48 h, read-out: GI
EKVX = experiment: Cytotoxicity against human EKVX cells assessed as cell growth inhibition at 10 uM after 48 hrs by SRB assay relative to control; type: functional; settings: read-out: GI
[14] = Cytotoxicity against human HOP92 cells assessed as cell growth inhibition at 10 uM after 48 hrs by SRB assay relative to control; type: functional; settings: HOP-92, 48 h, read-out: GI
[15] = Cytotoxicity against human SW620 cells assessed as cell growth inhibition at 10 uM after 48 hrs by SRB assay relative to control; type: functional; settings: SW-620, 48 h, read-out: GI
[16] = Cytotoxicity against human OVCAR4 cells assessed as cell growth inhibition at 10 uM after 48 hrs by SRB assay relative to control; type: functional; settings: OVCAR-4, 48 h, read-out: GI
T47D = experiment: Cytotoxicity against human T47D cells assessed as cell growth inhibition at 10 uM after 48 hrs by SRB assay relative to control; type: functional; settings: read-out: GI
SK-MEL-2 = experiment: Cytotoxicity against human SK-MEL-2 cells assessed as cell growth inhibition at 10 uM after 48 hrs by SRB assay relative to control; type: functional; settings: SK-MEL-2, 48 h, read-out: GI
[17] = Cytotoxicity against human HL-60(TB) cells assessed as cell growth inhibition at 10 uM after 48 hrs by SRB assay relative to control; type: functional; settings: HL-60, 48 h, read-out: GI
NCI-H23 = experiment: Cytotoxicity against human NCI-H23 cells assessed as cell growth inhibition at 10 uM after 48 hrs by SRB assay relative to control; type: functional; settings: NCI-H23, 48 h, read-out: GI
MDA-MB-435 = experiment: Cytotoxicity against human MDA-MB-435 cells assessed as cell growth inhibition at 10 uM after 48 hrs by SRB assay relative to control; type: functional; settings: MDA-MB-435, 48 h, read-out: GI
[18] = Cytotoxicity against human COLO205 cells assessed as cell growth inhibition at 10 uM after 48 hrs by SRB assay relative to control; type: functional; settings: COLO 205, 48 h, read-out: GI

O=c1nc(N2CCOCC2)oc2c(-c3cccc4c3oc3ccccc34)cccc12
inhibition of growth at 10 µM [1]: 13% | inhibition of growth at 10 µM (HT-29): 1.56% | inhibition of growth at 10 µM (A498): 27.9% | inhibition of growth at 10 µM (U-251): 7.66% | inhibition of growth at 10 µM [2]: 1.19% | inhibition of growth at 10 µM [3]: -3.42% | inhibition of growth at 10 µM (MCF7): 11.3% | inhibition of growth at 10 µM [4]: 12.8% | inhibition of growth at 10 µM [5]: 39.2% | inhibition of growth at 10 µM [6]: 15% | inhibition of growth at 10 µM [7]: 4.2% | IC50 [8]: 0.269 µM | inhibition of growth at 10 µM [9]: -14.9% | inhibition of growth at 10 µM [10]: 4.3% | inhibition of growth at 10 µM (NCI-H522): 23% | inhibition of growth at 10 µM [11]: 41.5% | inhibition of growth at 10 µM (ACHN): 6.98% | inhibition of growth at 10 µM (NCI-H322M): 22.3% | inhibition of growth at 10 µM [12]: -4.36% | inhibition of growth at 10 µM [13]: 23.2% | inhibition of growth at 10 µM (EKVX): 18.2% | inhibition of growth at 10 µM [14]: 45.6% | inhibition of growth at 10 µM [15]: 0.96% | inhibition of growth at 10 µM [16]: -1.43% | inhibition of growth at 10 µM (T47D): 15.1% | inhibition of growth at 10 µM (SK-MEL-2): -4.28% | inhibition of growth at 10 µM [17]: 5.92% | inhibition of growth at 10 µM (NCI-H23): 11.1% | inhibition of growth at 10 µM (MDA-MB-435): 17.1% | inhibition of growth at 10 µM [18]: -2.34%

O=c1nc(N2CCOCC2)oc2c(-c3ccsc3)cccc12
inhibition of growth at 10 µM [1]: 15.3% | inhibition of growth at 10 µM (HT-29): 12.7% | inhibition of growth at 10 µM (A498): 37.2% | inhibition of growth at 10 µM (U-251): 8.75% | inhibition of growth at 10 µM [2]: 3.35% | inhibition of growth at 10 µM [3]: 1.24% | inhibition of growth at 10 µM (MCF7): 22.3% | inhibition of growth at 10 µM [4]: 13.3% | inhibition of growth at 10 µM [5]: 10.6% | inhibition of growth at 10 µM [6]: 14.4% | inhibition of growth at 10 µM [7]: 9.6% | IC50 [8]: 9.8 µM | inhibition of growth at 10 µM [9]: -0.06% | inhibition of growth at 10 µM [10]: -3.77% | inhibition of growth at 10 µM (NCI-H522): 0.83% | inhibition of growth at 10 µM [11]: 38.8% | inhibition of growth at 10 µM (ACHN): 2.44% | inhibition of growth at 10 µM (NCI-H322M): 16% | inhibition of growth at 10 µM [12]: -2.71% | inhibition of growth at 10 µM [13]: 24.6% | inhibition of growth at 10 µM (EKVX): 16.3% | inhibition of growth at 10 µM [14]: 40.7% | inhibition of growth at 10 µM [15]: 2.66% | inhibition of growth at 10 µM [16]: 3.41% | inhibition of growth at 10 µM (T47D): 26.5% | inhibition of growth at 10 µM (SK-MEL-2): -2.53% | inhibition of growth at 10 µM [17]: 4.04% | inhibition of growth at 10 µM (NCI-H23): 15.4% | inhibition of growth at 10 µM (MDA-MB-435): 3.77% | inhibition of growth at 10 µM [18]: -5.35%
